Values quoted from earlier work in patent US9358213B2, “Pharmaceutical compositions of duloxetine” (priority 2007, dated 2016).

CNCC[C@H](Oc1cccc2ccccc12)c1cccs1 [Duloxetine]
stability at alkaline pH (alkaline pH): stable | dosage hydrolyzed to 1-naphthol (pH of 1.0, within one hour): 50% | dosage degrades to 1-naphthol (pH of 2.0, in one hour): 10% | time for 10% degradation (pH of 4.0): up to 63 hours
